Experimental data from US11434492B2, “Ribosome-mediated incorporation of peptides and peptidomimetics” (Arizona Board of Regents on behalf of Arizona State …, priority 2015, dated 2022).

Key:
[1] = test system: modified ribosomes from clones 010328R4; assay: In vitro translation: incorporation into position 49 of DHFR (pETDH49), S-30 from clone 010328R4; type: biochemical, E. coli; details: clone 010328R4 (group 1)
Description: (§1) In vitro Protein Translation. Protein translation reactions were carried out in 12-2000 μL of incubation mixture containing 0.4 μL/μL of S-30 system, 100 ng/μL of plasmid, 35 mM Tris acetate, pH 7.4, 190 mM potassium glutamate, 30 mM ammonium acetate, 2 mM DTT, 0.2 mg/mL total E. coli tRNA, 3.5% PEG 6000, 20 μg/mL folinic acid, 20 mM ATP and GTP, 5 mM CTP and UTP, 100 μM amino acids mixture, 0.5 μCi/μL of ^35S-methionine for analytical purposes only and 1 μg/mL rifampicin. In the case of plasmids having a gene with a TAG codon, a suppressor tRNA was added to a concentration of 0.8 μg/μL. Reactions were carried out at 37° C. for 1 h (for 12 μL reaction mixtures) to 1.5 h (for 2000 μL reaction mixtures) and terminated by chilling on ice. Aliquots from in vitro translation mixtures were analyzed by SDS-PAGE followed by quantification of the radioactive bands by phosphorimager analysis.
The other two compounds gave about 1.5-2 times lower suppression efficiency (7-9 and 5-6%).

[2] = test system: modified ribosomes (23S rRNA modified); assay: In vitro translation: suppression of UAG codon at position 10 of DHFR mRNA, S-30 systems having modified ribosomes; type: biochemical, E. coli; details: position 10 of E. coli DHFR, relative to wild-type DHFR = 100
Description: Preparation of Aminoacyl-tRNACUAs. The activation of suppressor tRNACUAs was carried out as described previously.^4,5 Briefly, 100-μL reaction mixture of 100 mM Na Hepes, pH 7.5, contained 1.0 mM ATP, 15 mM MgCl2, 100 μg of suppressor tRNACUA-COH, 0.5 A260 unit of N-pentenoyl-protected aminoacyl-pdCpA, 15% DMSO, and 100 units of T4 RNA ligase. The reaction mixture was incubated at 37° C. for 1.5 h and quenched by the addition of 0.1 vol of 3 M NaOAc, pH 5.2. The N-protected aminoacylated tRNA was precipitated with 3 vol of cold ethanol. The efficiency of ligation was estimated by 8% polyarylamide-7 M urea gel electrophoresis (pH 5.0).
The N-pentenoyl-protected aminoacyl-tRNACUAs were deprotected by treatment with 5 mM aqueous […] at 25° C. for 15 min. The solution was centrifuged, and the supernatant was adjusted to 0.3 M NaOAc and treated with 3 vol of cold ethanol to precipitate the aminoacylated tRNA. The tRNA pellet was collected by centrifugation, washed with 70% aq EtOH, air dried and dissolved in 20 μL of RNase free water.
Preparation of S-30 Extracts from Cells Having Modified Ribosomes. Aliquots (5-10 μL) from liquid stocks of E. coli BL-21 (DE-3) cells, harboring plasmids with a wild-type or modified rrnB gene, were placed on LB agar supplemented with 100 µg/mL of ampicillin and grown at 37° C. for 16-18 h. One colony was picked from each agar plate and transferred into 3 mL of LB medium supplemented with 100 μg/mL of ampicillin and 0.5 mM IPTG.
as §1
Incorporation of Dipeptides 2, 3 and 4 into DHFR Using the Modified Ribosomes. Initially, glycylphenylalanine (2) was chosen to screen the selected modified ribosomes for their ability to incorporate a dipeptide into DHFR. It was anticipated that minimal steric hindrance and more flexibility at the N-terminus of the dipeptide (a glycine residue) would enable optimal positioning of the amine for a nucleophilic attack in the PTC of the modified ribosomes. A modified DHFR construct, having a TAG codon in position 10 (pETDH10 plasmid) was used for the incorporation of glycylphenylalanine.
The suppression efficiencies were expressed relative to the wild-type DHFR synthesis. As a negative control, wild-type DHFR synthesis in the presence of nonacylated-tRNACUA was measured for each experiment. The amounts of DHFR produced were quantified with a phosphoimager, which monitored the incorporation of ^35S-methionine into DHFR. Using glycylphenylalanyl-tRNACUA, S-30 preparations having the modified ribosomes from clone groups 1, 2, 3 and 9 produced full length DHFR in ˜9% yields relative to the wild-type DHFR synthesis (Table 3). The modified ribosomes from clone groups 4-8 incorporated glycylphenylalanine (2) with low yields (˜2-4%). For dipeptide 2, best incorporation yields (up to 12%) were obtained by S-30 system having modified ribosomes from clone group 9 (2057AGUGAGA2063 and 2502AUCCGA2507).

[3] = test system: modified ribosomes from clone 010326R6; assay: In vitro translation: suppression of TAG codon at position 66 of GFP (pETGFP66), S-30 from clone 010326R6; type: biochemical, Escherichia coli
Description: as §1
The free amino acids both have λex in the range 296-302 nm but the λem of 7 is somewhat red-shifted compared to that of 6. […] As a negative control, wild-type GFP synthesis from the modified mRNA in the presence of nonacylated tRNACUA was measured for each experiment. The amounts of GFP produced were quantified with a phosphoimager, which monitored the incorporation of ^35S-methionine into proteins. […]

[4] = Fluorescence emission of dipeptidomimetics and of proteins containing them; type: physicochemical; details: as stated for comparison of 6 and wild-type BFP
Description: Further, we prepared a modified DHFR having dipeptidomimetic 6 at position 10 at larger scale to investigate the fluorescence intensity of 6 in protein. The fluorescence emission spectra of wild-type DHFR and modified DHFR having 6 at position 10 were compared (FIG. 8) at 302 nm excitation wavelength.
Fluorescence Emission of an Artificial BFP Having Dipeptidomimetic 6. We designed fluorescent dipeptidomimetics 6-10 as stable analogues of GFP-chromophore. We anticipated their use to create artificial fluorescent proteins; to verify the same we replaced the chromophore of BFP with dipeptidomimetic 6 in order to prepare an artificial fluorescent protein. The fluorescence emission of 6 is near blue region of visible light spectrum (˜400 nm). Therefore, we compared the fluorescence emission intensity of artificial FP (artificial BFP 1) having 6 at position 66 with wild-type BFP, which has a fluorescence emission ˜450 nm. […] Wild-type and artificial BFP were prepared in a larger scale in a cell free translation system for fluorescence measurements.
A modified BFP construct, having a TAG codon in position 66 and a suppressor tRNACUA activated with 6 were used for the preparation of artificial BFP 1. […] As illustrated from FIG. 11, fluorescence intensity of artificial BFP 1 (emission maximum ˜375 nm) having 6 in position 66 is 20-fold greater than the wild-type BFP at similar protein concentrations. […]

Row | Compound | suppression efficiency (full-length DHFR synthesis relative to wild-type) [1] | Suppression efficiency in different S-30 systems, having modified ribosomes (%) ([2]; clone group 1) | Suppression efficiency in different S-30 systems, having modified ribosomes (%) ([2]; clone group 9) | suppression yield (full length GFP) relative to wild-type GFP synthesis [3] [%] | fluorescence emission [4] [nm]
1 | C=CCCC(=O)N[C@H]1CCCCN(CC(=O)OC2C(COP(=O)(O)OC3CC(n4ccc(N)nc4=O)OC3COP(=O)(O)O)OC(n3cnc4c(N)ncnc43)C2O)C1=O (stereo partly drawn) [cyclic peptidomimetic 145, (S)-2-(2-Oxo-3-(pent-4-enamido)azepan-1-yl)acetyl-pdCpA] | 11-13% | – | – | – | –
2 | COc1ccc(-c2oc(CN)nc2C(=O)O)cc1 [dipeptidomimetic 6] | – | 10.2 ± 1.7 | 9.8 ± 2.1 | ~6.5 | ~400
